Legend:
[1] = test system: promyelocytic leukemia cell line HL-60; assay: Myeloid differentiation of HL-60 cells
Protocol: Granulocytic differentiation was characterized by FACS analysis of cells stained with antibody specific to CD16 (Immunotools), CD15 (BD Pharmigen) or CD11b (BD Pharmigen) and by morphological assessment of Wright-Giemsa-stained cytospin slides. […] We cultured HL-60 cells in the presence of 10 ng ml^-1 human rhG-CSF(Cell systems Biotechnoogy), 10 ng ml^-1 human rhNAMPT (Phoenix Pharmaceuticals) or 0.1µM ATRA (Sigma). For the measurement of NAD^+, 0.5 M ice-cold HClO4 was added to the cells, or cell culture supernatants or plasma; after 2 min, 100µl of supernatants was collected by centrifugation at 3,000g for 5 min, was 20µl K2HPO4 (1 M) added with cooling on ice and adjusted pH to 7.2-7.4 with KOH. 50µl of supernatant was given to the reaction mixture containing 0.1 M sodiumpyrophosphate-semicarbazid (Sigma) (pH 8.8), absolute ethanol and dH2O, NAD^+ spectrophotometrically was assessed at 339 nm at room temperature (25°C) as as mean difference in absorbance before (A1) and 6 min after (A2) addition of alcohol dehydrogenase (Roche).

[2] = test system: CD34^+ cells; assay: NAMPT inhibition (FK866) or G-CSFR knock-down in G-CSF- or NAMPT-stimulated CD34+ cells
Text: NAMPT is induced by G-CSF, so it was further analyzed whether this enzyme is required for G-CSF-triggered granulopoiesis.
DNA oligonucleotides corresponding to position 642 bp to 660 bp of the human CSF3R gene sequence were chemically synthesized. These nucleotides also contained overhang sequences from a 5' BglII- and a 3'HindIII- restriction sites. The numbering of the first nucleotide of the shRNAs refers to the ATG start codon. The oligonucleotide sequences was as follows […] (Seq. ID No. 3). The oligonucleotides were inserted into the BglII/HindIII-digested pSUPER-derived plasmid to generate pSUPER-CSF3R_642 and verified the isolated clone by DNA sequencing. To generate lentiviral transgenic plasmids containing shRNA expression cassettes located in the U3 region of the […]3'-LTR pRRL,PPT.SF.DsRedEx.pre was used. pRRL.PPT.SF.DsRedEx.pre is a derivative of the standard lentiviral vector pRRL.PPT.PGK, DsRedEx.pre (kindly provided by Luigi Naldini, Milano, Italy) using an internal SFFV promoter. To generate the lentiviral CSF3R_642-SR plasmid, the pSUPER-CSF3R_642 was digested with SmaI and HincII and ligated the resulting DNA fragments (360 bp) into the SnaBI site of the pRRL.PPT.SF.DsRedEx,pre. The lentiviral plasmid encodes RFPEXPRESS as reporter gene.

[3] = test system: CD34^+ bone marrow progenitor cells from healthy individuals; assay: Granulocytic/myeloid differentiation of cultured CD34+ cells from healthy individuals (FACS, qRT-PCR, ELISA, NAD+ measurement); format: cell-based, human; settings: FACS analysis; nicotinamide 1 mM or 10 mM; lentiviral transduction MOI 1-2
Protocol: Bone marrow and peripheral blood mononuclear cells were isolated by Ficoll-Hypaque gradient centrifugation (Amersham Biosciences) and positively selected bone marrow CD34^+ and CD33^+ cells by sequential immunomagnetic labeling with corresponding magnetic cell-sorting beads (Miltenyi Biotech). Peripheral blood PMNs were isolated by Ficoll-Hypaque gradient centrifugation and by subsequent hypotonic lysis of erythrocytes in cell pellet, Cells were counted and viability was assessed by trypan blue dye exclusion. The purity of sorted CD34^+ cells, CD33^+ cells and PMNs was more than 96% as assessed by FACS analysis and by staining with May-Grünwald-Giemsa.
Purified PMNs and CD33^+ cells were cultured in RPMI-1640 medium supplemented with 1% heat-inactivated autologous human serum with or without addition of 10 ng ml^-1 of recombinant human G-CSF (rhG-CSF) (Cell Systems Biotechnology). […] For assessment of G-CSFR protein expression cells were stained with unconjugated antibody to mouse G-CSFR and secondary FITC-conjugated antibody and measured G-CSFR expression by FACS. […] G-CSF protein was measured by G-CSF-specific ELISA from R&D Systems and NAMPT protein by NAMPT specific carboxy-terminal enzyme immunometric assay (Phoenix Pharmaceuticals).

[4] = Treatment of healthy individuals with vitamin B3, blood cell analysis; format: in vivo, human
[5] = 25-50 mg kg^-1 d^-1, subjects with type 1 diabetes; cited from earlier work

Q: With `CC1=C(/C=C/C(C)=C/C=C/C(C)=C/C(=O)O)C(C)(C)CCC1` [ATRA, all-trans-retinoid acid] as the molecule, how does the “myeloid (granulocytic) differentiation of HL-60 cells” value ([1]; 10 ng ml^-1 rhG-CSF, 10 ng ml^-1 rhNAMPT or 0.1µM ATRA, or lentiviral transduction) read?
A: differentiates into granulocytes

Q: What about the “levels of iNAD^+ as well as mRNAs of SIRT1, C/EBPα and C/EBPβ” value ([1]; compared with untreated controls) of the same molecule?
A: Elevated levels

Q: For `O=C(/C=C/c1cccnc1)NCCCCC1CCN(C(=O)c2ccccc2)CC1` [FK866], which “cell viability and proliferation” value ([2]; 1 nM FK866) is on record?
A: no effect

Q: And the “G-CSF induction of C/EBPα or C/EBPβ mRNA expression and G-CSFR mRNA or protein expression” value ([2]; NAMPT activity inhibited with FK866)?
A: unable to induce

Q: And the “G-CSF or iNAD^+ levels in G-CSF- or NAMPT-stimulated cells” value ([2]; cells pretreated with FK866)?
A: no increase

Q: And the G-CSF-triggered granulocytic differentiation ([2]; pretreatment with 1 nM FK866, then G-CSF)?
A: substantially abrogated

Q: What does the source list for `NC(=O)c1cccnc1` [vitamin B3, nicotinamide]?
A: myeloid differentiation of CD34^+ cells [3]: induced myeloid differentiation of CD34^+ cells in a dose-dependent manner; increase in the neutrophilic granulocyte content ([4]; 10-20 mg kg^-1 d^-1, within 2 d): up to twofold; iNAD^+ levels in PMNs ([4]; compared with steady-state levels): Increased; C/EBPα and C/EBPβ mRNA levels in bone marrow CD34^+ cells, CD33^+ cells and in peripheral blood PMNs ([4]; healthy individuals): upregulation; CD34^+ hematopoietic progenitor cells in peripheral blood ([4]; healthy individuals): mobilisation; Other blood cell lineages ([4]; healthy individuals): unaffected; decline of neutrophil numbers to the physiological level after discontinuation ([4]; healthy individuals): 2-3 d; time after initiation of treatment at which increased neutrophil numbers were detected ([4]; healthy individuals): 1 to 2 days; numbers of neutrophilic granulocytes ([4]; six healthy individuals, 10 mg per kg per d for 1 week): significant increases; adverse effects ([4]; treated healthy individuals): no adverse effects; side effects [5]: no side effects

Reference: patent publication EP2213288A1 (Welte, Karl, priority 2009, dated 2010)
